From patent US4352807A, “Hexahydro-trans-pyridoindole neuroleptic agents” (Pfizer Inc., priority 1980, dated 1982)
Like-named read-outs stand apart in the source and are kept apart here.

Key:
dopamine receptors = biological target: T1, dopamine receptors (Rattus norvegicus, UniProt P61169); experiment: Inhibition of ^3 H-spiroperidol binding to dopamine receptors (rat corpus striatum homogenate); set-up: species or system rat (Sprague-Dawley CD); details: 0.5 nM ^3 H-spiroperidol, 10 min at 37° C.
T1 construct: brains were immediately dissected on an ice-cold glass plate to remove corpus striatum; from tissue; host or cells: rat corpus striatum, washed homogenate (Sprague-Dawley CD males)
Procedure: The procedure was as follows:
Rats (Sprague-Dawley CD males, 250-300 g., Charles River Laboratories, Wilmington, Mass.) were decapitated, and brains were immediately dissected on an ice-cold glass plate to remove corpus striatum (~100 mg./brain). Tissue was homogenized in 40 volumes (1 g.+40 ml). of ice-cold 50 mM. […] The tissue suspension was placed in a 37° C. water bath for 5 minutes to insure inactivation of tissue monoamine oxidase and then kept on ice until used. The incubation mixture consisted of 0.02 ml. inhibitor solution (the desired concentration of the derivative to be tested in stock solution). […] Tubes were incubated in sequence for 10 minutes at 37° C. in groups of three, after which 0.9 ml. of each incubation tube was filtered through Whatman FG/B filters using a high vacuum pump. Each filter was placed in a scintillation vial, 10 ml. of liquid scintillation fluor was added and each vial was vigorously vortexed for about five seconds. Samples were allowed to stand over night, until filters were translucent, vortexed again and then counted 1.0 minute for radioactivity. Binding was calculated as femtomales (10^-15 moles) of ^3 H-spiroperidol bound per mg. protein. Controls (vehicle or 1 butaclamol, 10^-7 M; 4.4 mg. dissolved in 200 μl. glacial acetic acid, then diluted to 2.0 ml. with DDW for 10^-4 M stock solution, kept refrigerated), blank (d-butaclamol, 10^-7 M; (4.4 mg./2 ml.) for 10^-4 M stock solution, same protocol as 1-butaclamol); and inhibitor solutions were run in triplicate. […] Insoluble drugs were dissolved in 50% ethanol (1% ethanol incubation).
**DDW=Double Distilled Water.

[1] = tested on: amphetamine-induced symptoms (characteristic amphetamine behaviour of cage movement); experiment: Antagonism of amphetamine symptoms in rats (rat amphetamine test); format: in vivo; details: block of cage movement in 50% of rats; for ED50, rat amphetamine test, 1 hr.: 60 min; for ED50, rat amphetamine test, 5 hr.: 300 min; for ED50, rat amphetamine test, 24 hr.: 1440 min; for ED50: Rattus norvegicus, sc
Source text: The tranquilizing activity of the derivatives may be determined using the well known standard procedure-antagonism of amphetamine-induced symptoms in rats.
The effects of the above examples of Derivatives on prominent amphetamine-induced symptoms were studied in rats by a rating scale modeled after the one reported by Quinton and Halliwell, and Weissman. Rats were placed individually in a covered plastic cage measuring approximately 26 cm.×42 cm×16 cm. After a brief period of acclimation of the cage, the rats in each group, commonly, five animals per dose level, were treated subcutaneously (s.c.) with a selected dose of the Derivative to be tested. They were then treated 1, 5 and 24 hrs. later with d-amphetamine sulfate, 5 mg./kg. intraperitoneally (i.p.). […] The time of rating chosen coincides with the peak action of amphetamine which is 60-80 min. after dosing.

[2] = s.c., d-amphetamine sulfate 5 mg/kg i.p. 1 hr after treatment
[3] = s.c., d-amphetamine sulfate 5 mg/kg i.p. 5 hr after treatment
[4] = s.c., d-amphetamine sulfate 5 mg/kg i.p. 24 hr after treatment
[5] = 1 h, s.c., d-amphetamine sulfate 5 mg/kg i.p. 1 hr after treatment, read-out: ED50, rat amphetamine test, 1 hr.
[6] = 5 h, read-out: ED50, rat amphetamine test, 5 hr., s.c., d-amphetamine sulfate 5 mg/kg i.p. 5 hr after treatment
[7] = 24 h, s.c., d-amphetamine sulfate 5 mg/kg i.p. 24 hr after treatment, read-out: ED50, rat amphetamine test, 24 hr.

T1 sequence (P61169 whole entry): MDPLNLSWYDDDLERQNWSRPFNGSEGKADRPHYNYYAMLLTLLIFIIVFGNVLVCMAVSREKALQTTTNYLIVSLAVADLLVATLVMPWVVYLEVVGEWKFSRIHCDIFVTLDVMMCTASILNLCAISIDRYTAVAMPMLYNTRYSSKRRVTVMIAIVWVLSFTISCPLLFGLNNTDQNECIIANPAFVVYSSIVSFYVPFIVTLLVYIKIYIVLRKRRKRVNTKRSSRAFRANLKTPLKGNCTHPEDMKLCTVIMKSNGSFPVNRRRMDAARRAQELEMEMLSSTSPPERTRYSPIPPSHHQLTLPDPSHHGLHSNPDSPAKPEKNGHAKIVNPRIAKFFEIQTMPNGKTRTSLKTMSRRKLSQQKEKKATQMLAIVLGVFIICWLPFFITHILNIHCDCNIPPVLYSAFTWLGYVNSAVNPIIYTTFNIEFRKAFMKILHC

Compound | IC50 (dopamine receptors) | ED50, rat amphetamine test, 1 hr. [1, 2] | ED50, rat amphetamine test, 5 hr. [1, 3] | ED50, rat amphetamine test, 24 hr. [1, 4] | ED50 [1, 5] | ED50 [1, 6] | ED50 [1, 7]
COc1ccccc1C(=O)NCCCCN1CC[C@H]2[C@H](C1)c1cc(F)ccc1N2c1ccc(F)cc1 (relative stereo) [Example 15, (±) 2-[N--(o-methoxybenzoyl)-1'-amino-n-but-4'-yl]] | 14 nM |  |  |  | 0.45 mg/kg | 0.18 mg/kg | 1 mg/kg
NCCCCN1CC[C@H]2[C@H](C1)c1cc(F)ccc1N2c1ccc(F)cc1 (relative stereo) [Example 2, (±)2-(1'-amino-n-but-4'-yl)-5-(p-fluorophenyl)-8-fluoro-2,3,4,4a,5,9b-hexahydro-trans-4a,9b-1(H)-pyrido[4,3-b]indole] | 24 nM |  |  |  | 17.7 mg/kg | 4.5 to 11.5 mg/kg | 17.7 mg/kg
Cc1ccc(S(=O)(=O)NCCCCN2CC[C@H]3[C@H](C2)c2cc(F)ccc2N3c2ccc(F)cc2)cc1 (relative stereo) [Example 16, (±) 2-(N--p-toluenesulfonyl-1'-amino-n-but-4'-yl)] |  |  |  |  | 1 mg/kg | 1 mg/kg | 
O=C(NCCCCN1CC[C@H]2[C@H](C1)c1cc(F)ccc1N2c1ccc(F)cc1)c1ccccc1 (relative stereo) [Example 13, (±) 2-(N--benzoyl-1'-amino-n-but-4'-yl)] |  |  |  |  | 0.1 to 0.3 mg/kg | 0.01 to 0.03 mg/kg | 0.3 to 1 mg/kg
CCOC(=O)NCCCCN1CC[C@H]2[C@H](C1)c1cc(F)ccc1N2c1ccc(F)cc1 (relative stereo) [Example 14, (±) 2-(N--ethoxycarbonyl-1'-amino-n-but-4'-yl)] | 11 nM |  |  |  | 0.05 mg/kg | 0.02 mg/kg | 0.3 mg/kg
CC(=O)NCCCCN1CC[C@H]2[C@H](C1)c1ccccc1N2c1ccccc1 (relative stereo) [Example 17, (±) 2-(N--acetyl-1'-amino-n-but-4'-yl)-5-phenyl-2,3,4,-4a,9b-hexahydro-trans-4a,9b-1(H)-pyrido[4,3-b]indole] | 16 nM |  |  |  |  |  | 

Now from value to compound, other results behind:

IC50 (dopamine receptors) | Compound | ED50, rat amphetamine test, 1 hr. [1, 2] | ED50, rat amphetamine test, 5 hr. [1, 3] | ED50, rat amphetamine test, 24 hr. [1, 4] | ED50 [1, 5] | ED50 [1, 6] | ED50 [1, 7]
1000 nM | CC(=O)NCCCCN1CCC2C(C1)c1cc(F)ccc1N2c1ccc(F)cc1 (single isomer, unassigned; (-)) [Example 12, (-) enantiomer of 2-(N--acetyl-1'-amino-n-but-4'-yl)] | 1 mg/kg | 1 mg/kg | 1 mg/kg |  |  | 
9 nM | CC(=O)NCCCCCCCN1CC[C@H]2[C@H](C1)c1cc(F)ccc1N2c1ccc(F)cc1 (relative stereo) [Example 10, (±) 2-(N--acetyl-1'-amino-n-hept-7'-yl)] |  |  |  | 0.09 mg/kg | 0.018 mg/kg | 0.05 mg/kg
16 nM | CC(=O)NCCN1CC[C@H]2[C@H](C1)c1cc(F)ccc1N2c1ccc(F)cc1 (relative stereo) [Example 6, 2-(N-acetyl-2-aminoethyl)-5-(p-fluorophenyl)-8-fluoro-2,3,4,4a,5,9b-hexahydro-trans-4a,9b-1(H)-pyrido[4,3-b]indole] |  |  |  | 0.11 mg/kg | 0.36 mg/kg | 1 mg/kg
10 nM | CC(=O)NCCCN1CC[C@H]2[C@H](C1)c1cc(F)ccc1N2c1ccc(F)cc1 (relative stereo) [Example 7, (±) 2-(N--acetyl-1'-amino-n-prop-3-yl)] |  |  |  |  |  | 
13 nM | CC(=O)NCCCCN1CC[C@H]2[C@H](C1)c1cc(F)ccc1N2c1ccc(F)cc1 (relative stereo) [Example 3, (±)2-(N-acetyl-1'-amino-n-but-4'-yl)-5-(p-fluorophenyl)-8-fluoro-2,3,4,4a,5,9b-hexahydro-trans-4a,9b-1(H)-pyrido[4,3-b]indole] |  |  |  | 0.02 mg/kg | 0.006 mg/kg | 0.66 mg/kg
4.7 nM | CC(=O)NCCCCN1CCC2C(C1)c1cc(F)ccc1N2c1ccc(F)cc1 (single isomer, unassigned; (+)) [Example 11, (+) enantiomer of 2-(N--acetyl-1-'-amino-n-but-4-yl)] | 0.02 mg/kg | 0.006 mg/kg | 0.28 mg/kg |  |  | 
9 nM | CC(=O)NCCCCCN1CC[C@H]2[C@H](C1)c1cc(F)ccc1N2c1ccc(F)cc1 (relative stereo) [Example 8, (±) 2-(N--acetyl-1'-amine-n-pent-5'-yl)] |  |  |  | 0.01 mg/kg | 0.004 mg/kg | 0.4 mg/kg
8 nM | CC(=O)NCCCCCCN1CC[C@H]2[C@H](C1)c1cc(F)ccc1N2c1ccc(F)cc1 (relative stereo) [Example 9, (±) 2-(N--acetyl-1'-amino-n-hex-6'-yl)] |  |  |  | 0.023 mg/kg | 0.002 mg/kg | 0.032 mg/kg
